Values joined by “and” are separate entries in the source; they are usually repeats but may differ in a detail not shown here. Equal values may be shown once. A value given as a limit tells only on which side of the number the result lay.

Data set [1] relates to human leukemia xenografts (HL-60). The experiment in a line: HL-60 human leukemia xenograft model: tumor volume and survival. The format is in vivo, mouse. From the text: Tumors were developed in first generation hybrid BDF1 (C57 B1 female×DBA/2 male) adult female mice kept at specified pathogen free (SPF) hygienic level. Suspensions of HL-60 human leukemia cells, or approximately 0.1 cm^3 volume of tumor tissue derived from HT-168 human melanoma, PC-3 human prostate adenocarcinoma, T47D human breast carcinoma, MXT mouse mammary cancer, or mouse B16 melanoma cells were implanted subcutaneously to develop the tumors. After 12-18 days when the tumor-bearing mice were first treated, the size of the tumors was in the 0.2-0.4 cm^3 range. All compounds used were dissolved in physiological (0.9%) saline (NaCl), and the agents, alone or in combinations, were applied subcutaneously or intraperitoneally in 50 μl volume. Tumor volume was determined by calipers in three dimensions; this technique is well known to one having ordinary skill in the art. Tumor volume was calculated according to the generally accepted formula: V=a^2×b×π/6, where “a” and “b” mean the shortest and longest diameter, respectively, of the measured tumor.
The HL-60 human leukemia model was developed and treated as described above. On day 12 the mice either remained untreated (Group 1) or were treated with 4.6 mg/kg CCDTHT (Group 2) or 4.6 mg/kg CCDTHT+15 mg/kg highly purified PALP (Group 3). Both CCDTHT and PALP were administered subcutaneously for three 5-day cycles with 2 resting days included between each 5-day cycle. In each group 7 mice were included.
On the technique in general: Xenograft models place foreign cells or tissue in a host animal.

A further data set relates to CaCO-2 cells. The experiment in a line: Viability of CaCO-2 colon adenocarcinoma cells (MTT assay). To be noted: Homo sapiens, Caco-2, 240 h, 10 days, read-out: reduction in the number of viable cells, CaCO-2. Format: cell-based. The procedure: To quantify cell death, around the time when significant and characteristic morphological changes took place, cells were pulse-labeled for 10 minutes with [^3H]thymidine to measure DNA activity as described elsewhere [Tomono, M. and Kiss, Z. (1995), “Ethanol enhances the stimulatory effects of insulin and insulin-like growth factor-I on DNA synthesis in NIH 3T3 fibroblasts,” Biochem. Biophys. Res. Commun. 208, 63-67]. Also, cells were collected as suspensions using trypsin, an established method in cell biology, followed by re-plating of cells in fresh tissue culture medium. If no viable cells were obtained after one week in culture, it meant that the cells at the time of re-plating were dead. Survival values obtained with untreated cells were considered 100%. For the determination of relative number of viable cells after treatments, in most cases the MTT assay was used. This calorimetric assay is based on the ability of living cells, but not dead cells, to reduce 3-(4,5-dimethyl thiazol-2-yl)-2,5-diphenyltetrazolium bromide [Carmichael, J, De Graff, W. G., Gazdar, A. F., Minna, J. D. and Mitchell, J. B. (1987), “Evaluation of tetrazolium-based semi-automated calorimetric assay: Assessment of chemosensitivity testing,” Cancer Res. 47, 936-942]. For this assay, cells were plated in 96-well plates, and the MTT assay was performed both in untreated and treated cell cultures. […]
For orientation: Formazan colour is commonly taken as a measure of viable cells.

A further data set has as its system HaCaT keratinocytes. The experiment in a line: Viability of HaCaT keratinocytes. Format: cell-based. The procedure: To quantify cell death, around the time when significant and characteristic morphological changes took place, cells were pulse-labeled for 10 minutes with [^3H]thymidine to measure DNA activity as described elsewhere [Tomono, M. and Kiss, Z. (1995), “Ethanol enhances the stimulatory effects of insulin and insulin-like growth factor-I on DNA synthesis in NIH 3T3 fibroblasts,” Biochem. Biophys. Res. Commun. 208, 63-67]. Also, cells were collected as suspensions using trypsin, an established method in cell biology, followed by re-plating of cells in fresh tissue culture medium. If no viable cells were obtained after one week in culture, it meant that the cells at the time of re-plating were dead. Survival values obtained with untreated cells were considered 100%. For the determination of relative number of viable cells after treatments, in most cases the MTT assay was used. This calorimetric assay is based on the ability of living cells, but not dead cells, to reduce 3-(4,5-dimethyl thiazol-2-yl)-2,5-diphenyltetrazolium bromide [Carmichael, J, De Graff, W. G., Gazdar, A. F., Minna, J. D. and Mitchell, J. B. (1987), “Evaluation of tetrazolium-based semi-automated calorimetric assay: Assessment of chemosensitivity testing,” Cancer Res. 47, 936-942]. For this assay, cells were plated in 96-well plates, and the MTT assay was performed both in untreated and treated cell cultures. The MTT assay also was performed at the start of treatments to allow assessment of proliferation rates in the control and treated cell cultures.
HaCaT keratinocytes, frequently used immortalized model cells for studying psoriatic keratinocytes, and HTB-157 human fetus lung fibroblasts were cultured in 10% FBS-containing Dulbecco's modified Eagle's medium (DMEM). Cells were distributed in 96-well plates; when cells were 50-60% confluent, the medium was changed for fresh 10% serum-containing medium, followed by incubations for 48 hours in the absence (□) or presence of 50 μM CCDTHT ? , or 100 μM CCDTHT (▪). The MTT assay was used to determine cell viability. […]

Data set [2] is described as follows: Body weight of animals in the MXT tumor model. The format is in vivo, mouse. Conditions: Example 31, CisPt 2 mg/kg i.p. and/or CCDTHT 4.6 mg/kg s.c. As for the experimental part:
The mouse mammary MXT tumor was developed as described above. […] CCDTHT and CisPt were administered subcutaneously and intraperitoneally, respectively, once daily for 10 days, including a 2-day rest period after 5 days of treatment (i.e., the last treatment was on day 19). Each group consisted of 7 animals, and the mean values±std. dev. for tumor volumes and body weight are shown in TABLE 4 and TABLE 5, respectively.
The mouse mammary MXT tumor model was developed and treated as described above. […] CisPt and PALP were administered intraperitoneally and subcutaneously, respectively, seven times on every second day (i.e., treatments were terminated on day 21). Each group included 7 animals; the mean values±std. dev. for tumor volumes and body weight are shown in TABLE 6 and TABLE 7, respectively.
The mouse mammary MXT tumor model was developed and treated as described above. […] In each group 7 mice were included. The mean values±std. dev. for tumor volumes and body weights are shown in TABLE 9 and TABLE 10, respectively.

Where [3] appears, read: CCDTHT 4.6 mg/kg s.c. without or with PALP 15 mg/kg s.c., 5-day cycles.

The inhibition is the change of the read-out against control, counted positive when it falls. In the case of `CC[N+](C)(CC)CCOCc1ccc2sc3ccccc3c(=O)c2c1.[I-]` [CCDTHT, N,N-diethyl-N-methyl-2-[(9-oxo-9H-thioxanthen-2-yl)methoxy]-ethanaminium iodide], in data set [1] (setting [3]), the “Tumor volume, Day 16” value amounted to 1.26 ± 0.73 cm^3; the “Tumor volume, Day 22” value stood at 2.74 ± 0.37 cm^3; the “Tumor volume, Day 26” value worked out at 3.72 ± 0.44 cm^3. Further, in data set [1] (CCDTHT 4.6 mg/kg s.c. without or with PALP 15 mg/kg s.c., start of treatment), the “Tumor volume, Day 12” value turned out to be 0.46 ± 0.32 cm^3. The “survival of leukemic mice” value in data set [1] (CCDTHT 4.6 mg/kg without or with PALP 15 mg/kg) is 34.9 ± 6.6 days. In the data set on CaCO-2 cells, the cytotoxicity at 100 µM is not above 50%. In the data set with HaCaT keratinocytes (50-100 μM, 48 hours, MTT), the “reduction in the number of viable HaCaT cells” value is 85-98% and 85-100%. Further, the inhibition at 100 µM with HaCaT keratinocytes (Homo sapiens, HaCaT, 48 h, read-out: inhibition of DNA synthesis, HaCaT) was approximately 95%. In addition, the “viable cells after re-plating of treated HaCaT cells” value in the data set with HaCaT keratinocytes (re-plated after treatment, fresh medium for 1 week) is given as “no viable cells were found”. In addition, in data set [2] (once daily), the “Body weight, Day 14” value is 25.1 ± 0.84 g; the “Body weight, Day 18” value was determined as 26.9 ± 0.93 g; the “Body weight, Day 21” value is listed as 28.8 ± 0.91 g. Also, in data set [2] (start of treatment), the “Body weight, Day 7” value was 22.8 ± 0.82 g.
